This is an account of results in US9242977B2, “Trk-inhibiting compound” (ONO PHARMACEUTICAL CO., LTD., priority 2012, dated 2016).

As usually defined, the IC50 is the midpoint of a concentration-inhibition curve.

In assay [1] the target is TrkA (Homo sapiens (Human), UniProt P04629). As to the kind of experiment: TrkA kinase-inhibiting activity using human TrkA expressing cells (CellSenser TrkA-NFAT-bla CHO-K1, NGF-stimulated reporter assay). The format is cell-based. To be noted: CHO-K1 cells expressing human TrkA and NFAT-bla; NGF 50 ng/ml; read-out: TrkA inhibitory activity (IC50; μM). On the procedure:
TrkA kinase-inhibiting activity in cell systems was measured using CHO-K1 cells expressing human TrkA and NFAT-bla (CellSenser™ TrkA-NFAT-bla CHO-K1 cells, Invitrogen).
On the day before the assay, CellSenser™ TrkA-NFAT-bla CHO-K1 cells were suspended in an assay medium (Opti-MEM1 Reduced Serum Medium (Invitrogen) containing 0.5% dialysed fetal bovine serum (Invitrogen), 0.1 mM nonessential amino acids (Invitrogen), 1 mM sodium pyruvate (Invitrogen) and antibiotics (100 U/mL penicillin and 100 μg/mL streptomycin (Invitrogen)) and plated at a density of 2.4×10^4 cells/40 μL/well in a 96-well clear bottom plate (Corning, Catalogue No.: 3882). In some wells were added only the assay medium at 40 μL/well (Cell-free). On the day of the assay, 10 mM of the present compound (DMSO solution) was distributed in a 96-well plate (Costar, Catalogue No.: 3363) and serially diluted with DMSO with the geometrical ratio of 3. The serial dilutions were diluted with the assay medium to 100-fold to prepare a solution of the present compound with a 10-times concentration (DMSO concentration: 1%). To the plate where cells were plated was added the present compound at 5 μL/well and the plate was incubated in a CO2 incubator with 5% CO2, 95% Air at 37° C. for 30 minutes. For a control and a blank, the assay medium containing 1% DMSO was added at 5 μL/well in place of the solution of the present compound. Subsequently the assay medium containing NGF (Mouse 2.5s, Natural, Invitrogen) was added to the plate at 5 µL/well (final concentration of NGF: 50 ng/ml) and the plate was incubated in a CO2 incubator with 5% CO2, 95% Air at 37° C. for 5 hours. For a group of blanks, the assay medium was added in place of NGF at 5 μL/well. A reporter assay detection reagent (10 μL/well) was added to the plate and the plate was then incubated in the dark at room temperature for 120 minutes. The reporter assay detection reagent was prepared from LiveBLAzer™-FRET B/G Loading Kit (Invitrogen). On an Analyst GT (Molecular Devices Japan, K.K.) the wells were irradiated with excitation light at 405 nm and the fluorescence intensities at 460 nm and 530 nm were measured. The time resolved fluorescence resonance energy transfer (TR-FRET) ratio of each well was calculated according to the following Equation 2. TR-FRET Ratio=(A460X−A460F)/(A530X−A530F) Equation 2
wherein A460X: the fluorescence intensity at 460 nm of the present compound, control or blank;
A460F: the fluorescence intensity at 460 nm of the Cell-free;
A530X: the fluorescence intensity at 530 nm of the present compound, control or blank; and
A530F: the fluorescence intensity at 530 nm of the Cell-free. […]
The IC50 value of the present compound was calculated from the inhibition curve based on the inhibition rate of the present compound at respective concentrations.
In general terms: In a reporter assay the amount or activity of a reporter protein is the signal.

The subject of assay [2] is NGF-induced vascular hyper permeability. The assay is described as follows: Suppression of rat NGF-induced vascular hyper permeability (in vivo test, Evans Blue). To be noted: oral, 12 hours after administration, read-out: Rates of Suppression for Vascular Hyper Permeability (%). As for the experimental part: TrkA-inhibiting activity of the present compound was evaluated in vivo. The present compound dissolved in a medium was orally administered (adminstered volume: 5 mL/kg) to male CD(SD)IGS rats (7- to 9-week old, Charles River laboratories Japan, Inc.) shaved on the back. A medium was orally administered (adminstered volume: 5 mL/kg) to the control and normal groups. After 6 or 12 hours of administration, 3 μg/mL of a NGF (Mouse 2.5s, Natural, Invitrogen) solution prepared in 0.1% BSA (Sigma-Aldrich)-containing saline was intracutaneously administered (dose; 50 μL/site) at 3 sites on the back of animals under halothane anesthesia. For the normal group, 0.1% BSA-containing saline was intracutaneously administered (dose; 50 μL/site) at 3 sites on the back. Immediately after intracutaneous administration, 1% Evans Blue (Tokyo Chemical Industry Co., Ltd.) was administered intravenously from tail (adminstered volume: 3 mL/kg). After 10 minutes of administration, the animals were sacrificed by bleeding due to incision of the abdominal aorta. The sites of intracutaneous administration on the back (3 sites) were excised and the skin samples were respectively transferred to the wells in a 48-well plate (Asahi Glass Co., Ltd.). Formamide (0.8 mL/well) was added to the plate and the plate was sealed and incubated overnight at 60° C. The formamide extraction solution (200 μL) was transferred to a 96-well plate and the absorbance (wavelength: 620 nm) of Evans Blue extracted in formamide was measured on an absorbance microplate reader (SpectraMAX 190, Molecular Devices Japan, K.K.). Standard samples of Evans Blue dissolved in formamide (0, 0.78, 1.56, 3.13, 6.25, 12.5, 25 and 50 μg/mL) were measured at the same time for the absorbance (wavelength: 620 nm) to generate a calibration curve. Based on the calibration curve and the absorbances of samples, the concentrations of Evans Blue in the sample was calculated. The concentrations of Evans Blue for three skin samples collected from one aminal were averaged to obtain the vale for the animal. The rate of suppression for rat NGF-induced vascular hyper permeability of the present compound was calculated according to the following Equation 4: Suppression rate (%)=(1−(AX−AN)/(AC−AN)}×100 Equation 4
wherein AX: the concentration of Evans Blue of the test compound (an average value of 3 samples from one animal);
AN: the concentration of Evans Blue of the normal group (an average value of 3 samples from one animal);
AC: the concentration of Evans Blue of the control group (an average value of 3 samples from one animal).

Chain of TrkA (P04629 33-796): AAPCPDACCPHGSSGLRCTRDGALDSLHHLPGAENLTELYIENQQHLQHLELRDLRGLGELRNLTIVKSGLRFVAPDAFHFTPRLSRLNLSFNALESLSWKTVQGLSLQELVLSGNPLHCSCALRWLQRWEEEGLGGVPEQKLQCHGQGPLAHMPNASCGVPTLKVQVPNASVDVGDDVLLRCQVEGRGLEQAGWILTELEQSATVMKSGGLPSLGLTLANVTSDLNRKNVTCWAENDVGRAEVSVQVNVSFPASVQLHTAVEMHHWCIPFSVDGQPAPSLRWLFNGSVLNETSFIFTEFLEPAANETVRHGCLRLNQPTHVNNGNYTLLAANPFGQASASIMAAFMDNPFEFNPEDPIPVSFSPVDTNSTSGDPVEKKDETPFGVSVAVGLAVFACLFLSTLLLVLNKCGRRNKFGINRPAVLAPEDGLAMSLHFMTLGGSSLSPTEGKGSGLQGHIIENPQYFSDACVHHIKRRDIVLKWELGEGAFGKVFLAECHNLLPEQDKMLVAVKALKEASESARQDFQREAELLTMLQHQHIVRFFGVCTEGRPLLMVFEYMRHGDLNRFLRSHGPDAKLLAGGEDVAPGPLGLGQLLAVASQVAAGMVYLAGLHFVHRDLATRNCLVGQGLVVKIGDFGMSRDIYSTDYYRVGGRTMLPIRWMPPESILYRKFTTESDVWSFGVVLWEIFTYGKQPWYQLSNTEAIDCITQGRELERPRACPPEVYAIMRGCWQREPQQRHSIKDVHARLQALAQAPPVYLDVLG

With `CCNc1ncc(-c2ccc(Oc3ncc(NC(=O)Nc4cc(C(F)(F)F)cnc4-c4ccc(C)cc4)cn3)cc2)s1` [Example 23, 1-(2-{4-[2-(ethylamino)-1,3-thiazol-5-yl]phenoxy}-5-pyrimidinyl)-3-[2-(4-methylphenyl)-5-(trifluoromethyl)-3-pyridinyl]urea], in assay [1], the IC50 was 0.004 µM. The inhibition in vivo at 1 mg/kg in assay [2] was found to be 78%.

As to `CCNc1ncc(-c2ccc(Oc3ccc(NC(=O)Nc4cc(C(F)(F)F)cnc4-c4ccc(C)c(C)c4)cn3)cc2)s1` [Example 34, 1-[2-(3,4-dimethylphenyl)-5-(trifluoromethyl)-3-pyridinyl]-3-(6-{4-[2-(ethylamino)-1,3-thiazol-5-yl]phenoxy}-3-pyridinyl)urea], the IC50 in assay [1] stood at 0.006 µM. Besides, the inhibition in vivo at 1 mg/kg in assay [2] came to 75%.

With `CCNc1ncc(-c2ccc(Oc3ncc(NC(=O)Nc4cc(C(F)(F)F)cnc4Oc4ccccc4)cn3)cc2)s1` [Example 48, 1-(2-{4-[2-(ethylamino)-1,3-thiazol-5-yl]phenoxy}-5-pyrimidinyl)-3-[2-phenoxy-5-(trifluoromethyl)-3-pyridinyl]urea], the IC50 in assay [1] was determined as 0.01 µM. Also, the inhibition in vivo at 1 mg/kg in assay [2] is 71%.

In the case of `O=C(Nc1cnc(Oc2ccc(-c3cnc(N4CCCC4=O)s3)cc2)nc1)Nc1cc(C(F)(F)F)cnc1-c1ccccc1` [Example 54, 1-(2-{4-[2-(2-oxo-1-pyrrolidinyl)-1,3-thiazol-5-yl]phenoxy}-5-pyrimidinyl)-3-[2-phenyl-5-(trifluoromethyl)-3-pyridinyl]urea], in assay [1], the 50% inhibitory concentration (IC50) was found to be 0.004 µM. The inhibition in vivo at 1 mg/kg in assay [2] is 88%.

Turning to `Cc1cccc(-c2ncc(C(F)(F)F)cc2NC(=O)Nc2cnc(Oc3ccc(-c4cnc(N5CCCC5=O)s4)cc3)nc2)c1` [Example 57, 1-[2-(3-methylphenyl)-5-(trifluoromethyl)-3-pyridinyl]-3-(2-{4-[2-(2-oxo-1-pyrrolidinyl)-1,3-thiazol-5-yl]phenoxy}-5-pyrimidinyl)urea], the IC50 in assay [1] stood at 0.003 µM. The inhibition in vivo at 1 mg/kg in assay [2] turned out to be 78%.

Consider `CCCNc1ncc(-c2ccc(Oc3ncc(NC(=O)Nc4cc(C(F)(F)F)ccc4Cl)cn3)cc2)s1` [Example 85-117, 1-[2-chloro-5-(trifluoromethyl)phenyl]-3-(2-{4-[2-(propylamino)-1,3-thiazol-5-yl]phenoxy}-5-pyrimidinyl)urea], for which the IC50 in assay [1] was 0.002 µM. For the same compound, the inhibition in vivo at 1 mg/kg in assay [2] is 74%.
